EC50 data for 34 compounds are collected here from patent US8796467B2, “Compounds” (Boehringer Ingelheim International GmbH, priority 2011, dated 2014).

This test addresses T1, human recombinant mGluR5 (Homo sapiens, UniProt P41594).
T1 construct: expressed in transfected cells; hygromycin and geneticin selection, tetracycline-regulated
The experiment in a line: Positive modulation of mGluR5, calcium based FLIPR assay in HEK 293 cell line. Conditions: EC50 of the modulation; HEK 293 cells expressing human recombinant mGluR5; glutamate at approximately 5% basal stimulation; peak height of Ca fluorescence signal. The procedure: The positive modulation of mGluR5 is measured in a HEK 293 cell line expressing human recombinant mGluR5 and is detected with calcium based FLIPR assay. The cells are cultured with DMEM supplemented with 10% FCS, 2 μg/mL tetracycline, 100 μg/mL hygromycin and 500 μg/mL gneticin. The cell culture media is exchanged for tetracycline-free cell culture media 3-7 days before the assay. One day before the assay the cell culture medium is exchanged to DMEM without glutamine and phenol red and supplemented with 10% FCS, 100 μg/mL hygromycin and 500 μg/mL geneticin. On the assay day, the medium of the subconfluent cultures is removed and the cells are detached by addition of 2.5 ml EDTA (0.02%) per 175 cm2 culture flask for 1 minute. The cells are resuspend in Ringer solution (140 mM NaCl, 5 mM KCl, 2.5 mM CaCl2, 1.5 mM MgCl2, 5 mM Glucose, 10 mM Hepes; adjusted to pH 7.4 with NaOH), pooled and Ringer solution added to adjust the volume to 50 mL. The cell suspension is centrifuged for 5 min at 1500 U/min (425 g). The supernatant is removed and the cells washed a second time with 50 ml fresh Ringer solution and centrifuged again as before. The supernatant is again removed and the pellet resuspended in Ringer solution to 1,000,000 cells/ml (1×10^6 cells/mL). The cells are plated onto BD BioCoat Poly-D-Lysine 384 well plates (20,000 cells/well; 20 μl/well). The lid covered plates are then incubated until use at 37° C./10% CO2. For dye loading, 20 μl of Calcium-4 assay kit solution (prepared according to the manufacturer's description in Ringer solution) are added to the cells and the plates are incubated for 80 min 37° C. and then 10 min at room temperature.
Controls, Compound Dilution and Assay Execution:
Each assay plate contained wells with “high” and “low” controls: • Low controls 1% DMSO/ringer solution+basal glutamate activation (defined as 100% CTL). • High controls 10 μM CDPPB+basal glutamate activation (defined as 200% CTL).
Test compounds are dissolved and diluted in DMSO to 100-fold the desired concentrations. In a second step, the compounds are diluted in Ringer solution such that the compounds are 4-fold more concentrated than the desired final assay concentration. The final DMSO concentration was 1%.
20 μl of each compound solution are then transferred to the assay plate and the Ca2+ kinetic is measured to determine any intrinsic compound activity. After 5 min incubation in the FLIPR device, the second stimulation with 20 μl of glutamate in Ringer solution (glutamate concentration adjusted to approximately 5% basal stimulation of the maximal possible glutamate effect) is added and the kinetic Ca2+ response of the wells was measured for the modulation effect.
The peak height of the Ca release related fluorescence signal (9-66) is used for the EC50.
The EC50 of the modulation is calculated over a nonlinear regression with GraphPad Prism (Table 1).

T1 sequence (P41594 21-1212): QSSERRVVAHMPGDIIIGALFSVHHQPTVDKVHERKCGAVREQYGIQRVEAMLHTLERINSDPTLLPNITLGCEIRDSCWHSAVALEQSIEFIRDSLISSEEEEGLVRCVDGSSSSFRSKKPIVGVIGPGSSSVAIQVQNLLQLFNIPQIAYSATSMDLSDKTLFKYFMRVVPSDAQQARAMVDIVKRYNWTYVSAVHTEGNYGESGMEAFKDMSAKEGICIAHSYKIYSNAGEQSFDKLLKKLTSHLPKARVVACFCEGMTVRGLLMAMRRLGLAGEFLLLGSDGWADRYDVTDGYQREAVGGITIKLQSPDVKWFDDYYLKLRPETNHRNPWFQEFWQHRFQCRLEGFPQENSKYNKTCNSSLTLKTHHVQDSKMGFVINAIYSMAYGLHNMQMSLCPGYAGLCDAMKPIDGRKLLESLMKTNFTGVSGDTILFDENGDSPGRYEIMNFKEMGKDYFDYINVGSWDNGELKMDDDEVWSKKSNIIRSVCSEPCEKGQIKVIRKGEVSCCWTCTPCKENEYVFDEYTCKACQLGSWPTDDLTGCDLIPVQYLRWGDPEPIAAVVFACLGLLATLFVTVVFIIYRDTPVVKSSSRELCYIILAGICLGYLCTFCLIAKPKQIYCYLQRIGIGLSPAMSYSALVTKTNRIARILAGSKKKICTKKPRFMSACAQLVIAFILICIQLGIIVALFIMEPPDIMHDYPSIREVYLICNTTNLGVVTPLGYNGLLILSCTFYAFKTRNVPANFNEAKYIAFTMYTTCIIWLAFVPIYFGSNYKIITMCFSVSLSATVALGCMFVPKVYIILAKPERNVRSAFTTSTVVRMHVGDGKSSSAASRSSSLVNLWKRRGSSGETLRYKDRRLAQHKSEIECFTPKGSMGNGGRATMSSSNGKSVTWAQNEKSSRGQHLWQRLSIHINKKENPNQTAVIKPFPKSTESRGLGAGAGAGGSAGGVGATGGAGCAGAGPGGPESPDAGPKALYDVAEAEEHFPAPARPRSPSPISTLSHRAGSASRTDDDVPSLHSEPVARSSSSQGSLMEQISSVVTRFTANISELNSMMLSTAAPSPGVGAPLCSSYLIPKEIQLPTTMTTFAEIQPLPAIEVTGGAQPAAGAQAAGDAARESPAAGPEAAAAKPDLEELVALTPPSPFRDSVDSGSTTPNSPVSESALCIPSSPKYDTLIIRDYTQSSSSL

Regarding `Cc1nc2c(s1)CCN(C(=O)Cn1cc(-c3ccc(F)c(C)c3)nc1-c1ccc(F)cc1)CC2` [Example 7.01.12.], the concentration for a half-maximal effect (EC50) turned out to be 78 nM.
`Cc1cc(-c2cn(CC(=O)N3CCN(c4cc(F)ccn4)C(=O)C3)c(-c3ccc(F)cc3)n2)ccc1F` [Example 7.01.25]: the EC50 amounted to 42 nM.
Take `Cc1nc2c(o1)CN(C(=O)Cn1cc(-c3ccc(F)c(C)c3)nc1C1CCCCC1)CC2` [Example 7.01.04.]: the EC50 was 885 nM.
As to `Cc1nc2c(o1)CN(C(=O)Cn1cc(-c3ccc(F)cc3)nc1-c1ccccc1)CC2` [Example 7.01.07.], the EC50 worked out at 939 nM.
As for `COc1cccc(N2CCN(C(=O)Cn3cc(-c4ccc(F)c(C)c4)nc3-c3ccc(F)cc3)CC2=O)c1` [Example 7.01.24], the figure is 90 nM; as for `Cc1nc2c(o1)CN(C(=O)Cn1cc(-c3ccc(F)c(C)c3)nc1-c1ccc(F)cc1)C2` [Example 7.01.34], 101 nM; as for `Cc1cc(-c2cn(CC(=O)N3CCc4nc(N)sc4CC3)c(C3CCCCC3)n2)ccc1F` [Example 7.01.05.], 623 nM.
Regarding `Cc1nc2c(s1)CN(C(=O)Cn1cc(-c3ccc(F)c(C)c3)nc1-c1ccccc1)CC2` [Example 7.01.31], the EC50 was 108 nM.
With `Cc1cccc(-c2cn(CC(=O)N3CCc4nc(C)oc4C3)c(-c3ccccc3)n2)c1` [Example 7.01.22.] the figure was 250 nM; with `Cc1cc(-c2cn(CC(=O)N3CCc4nc(N)sc4C3)c(-c3ccccc3)n2)ccc1F` [Example 7.01.27], 172 nM; with `Cc1nc2c(s1)CN(C(=O)Cn1cc(-c3ccc(F)c(C)c3)nc1-c1ccc(F)cc1)C2` [Example 7.01.14.], 64 nM.
As for `Cc1nc2c(o1)CN(C(=O)Cn1cc(-c3ccc(F)c(C)c3)nc1-c1ccccc1)C2` [Example 7.01.33], the figure is 127 nM; as for `Cc1nc2c(s1)CCN(C(=O)Cn1cc(-c3ccc(F)c(C)c3)nc1-c1ccccc1)CC2` [Example 7.01.01., 2-(4-(4-fluoro-3-methyl-phenyl)-2-phenyl-imidazol-1-yl)-1-(2-methyl-4,5,7,8-tetrahydro-thiazolo[4,5-d]azepin-6-yl)-ethanone], 90 nM.
With `Cc1cc(-c2cn(CC(=O)N3CCc4nc(N)sc4CC3)c(-c3ccc(F)cc3)n2)ccc1F` [Example 7.01.11.] the figure was 107 nM; with `Cc1nc2c(s1)CCN(C(=O)Cn1cc(-c3ccc(F)cc3)nc1-c1ccccc1)CC2` [Example 7.01.09.], 259 nM.
As to `Cc1nc2c(s1)CN(C(=O)Cn1cc(-c3ccc(F)cc3)nc1-c1ccc(F)cc1)C2` [Example 7.01.16.], the EC50 was 633 nM.
On to `Cc1nc2c(o1)CN(C(=O)Cn1cc(-c3ccc(F)c(C)c3)nc1-c1ccccc1)CC2` [Example 7.01.03.], for which the EC50 came out at 90 nM.
In the case of `Cc1nc2c(s1)CCN(C(=O)Cn1cc(-c3ccc(F)cc3)nc1-c1ccc(F)cc1)CC2` [Example 7.01.17.], the EC50 stood at 96 nM.
For `Cc1nc2c(s1)CCN(C(=O)Cn1cc(-c3ccc(F)c(C)c3)nc1C(C)C)CC2` [Example 7.01.10.], the EC50 turned out to be 854 nM.
Consider `Cc1nc2c(o1)CCN(C(=O)Cn1cc(-c3ccc(F)c(C)c3)nc1-c1ccccc1)CC2` [Example 7.01.29], for which the EC50 came to 162 nM.
Consider `Nc1nc2c(s1)CCN(C(=O)Cn1cc(-c3ccc(F)cc3)nc1-c1ccccc1)CC2` [Example 7.01.08.], for which the EC50 came to 738 nM.
As for `CC(=O)Nc1nc2c(s1)CCN(C(=O)Cn1cc(-c3ccc(F)c(C)c3)nc1-c1ccccc1)CC2` [Example 7.01.28], the figure is 769 nM.
Turning to `Cc1nc2c(o1)CCN(C(=O)Cn1cc(-c3ccc(F)c(C)c3)nc1-c1ccccc1)C2` [Example 7.01.32], the EC50 came out at 61 nM.
With `Cc1cc(-c2cn(CC(=O)N3CCN(c4ccccn4)C(=O)C3)c(-c3ccc(F)cc3)n2)ccc1F` [Example 7.01.26] the figure was 44 nM; with `Cc1nc2c(s1)CCN(C(=O)Cn1cc(-c3ccc(F)c(C)c3)nc1C1CCCCC1)CC2` [Example 7.01.06.], 332 nM.
Consider `Cc1nc2c(o1)CN(C(=O)Cn1cc(-c3ccc(F)cc3)nc1-c1ccc(F)cc1)CC2` [Example 7.01.15.], for which the EC50 was 297 nM.
With `Cc1cccc(-c2cn(CC(=O)N3Cc4nc(C)sc4C3)c(-c3ccccc3)n2)c1` [Example 7.01.19.], the EC50 came out at 574 nM.
Regarding `Nc1nc2c(s1)CCN(C(=O)Cn1cc(-c3ccc(F)cc3)nc1-c1ccc(F)cc1)CC2` [Example 7.01.18.], the EC50 was 448 nM.
As to `Cc1cccc(-c2cn(CC(=O)N3CCc4nc(C)sc4CC3)c(-c3ccccc3)n2)c1` [Example 7.01.20.], the EC50 came to 107 nM.
With `Cc1nc2c(o1)CN(C(=O)Cn1cc(-c3ccc(F)c(C)c3)nc1-c1ccc(F)cc1)CC2` [Example 7.01.13.] the figure was 40 nM.
In the case of `Cc1cc(-c2cn(CC(=O)N3CCc4ncsc4CC3)c(-c3ccccc3)n2)ccc1F` [Example 7.01.30], the EC50 was found to be 150 nM.
As for `Cc1cccc(-c2cn(CC(=O)N3CCc4nc(N)sc4CC3)c(-c3ccccc3)n2)c1` [Example 7.01.21.], the figure is 275 nM; as for `Cc1cc(-c2cn(CC(=O)N3CCc4nc(N)sc4CC3)c(-c3ccccc3)n2)ccc1F` [Example 7.01.02.], 224 nM.
As for `Cc1cc(-c2cn(CC(=O)N3CCN(c4cccc(C#N)c4)C(=O)C3)c(-c3ccc(F)cc3)n2)ccc1F` [Example 7.01.23], the figure is 431 nM.

By EC50 is commonly meant the concentration giving half of the maximal effect.
